Measured values published in ChEMBL document CHEMBL4190244, “Perylenyltriazoles inhibit reproduction of enveloped viruses” (Eur J Med Chem, 2017).

Key:
[1] = system: Tick-borne encephalitis virus; assay: Antiviral activity against TBEV Absettarov infected in PEK cells preincubated simultaneously with cells and virus for 1 hr with shaking every 15 to 20 mins measured after 6 days by gentian violet-staining based assay; assay type: functional, organism-based
[2] = Cytotoxicity against PEK cells after 7 days; assay type: cell-based, Sus scrofa; settings: pig
[3] = Cytotoxicity against PEK cells after 24 hrs; assay type: cell-based, Sus scrofa; settings: pig

Structure (SMILES) | EC50 [1] | CC50 at 168 h [2] | CC50 at 24 h [3]
O=c1[nH]c(=O)n([C@H]2C[C@H](O)[C@@H](CO)O2)cc1-n1cc(-c2ccc3c4cccc5cccc(c6cccc2c63)c54)nn1 | 0.038 µM | > 50 µM | > 50 µM
O=c1[nH]c(=O)n([C@@H]2O[C@H](CO)[C@@H](O)[C@H]2O)cc1-n1cc(-c2ccccc2)nn1 | > 50 µM | > 50 µM | > 50 µM
O=c1[nH]c(=O)n([C@@H]2O[C@H](CO)[C@@H](O)[C@H]2O)cc1-n1cc(-c2ccc3c4cccc5cccc(c6cccc2c63)c54)nn1 | 0.031 µM | > 50 µM | > 50 µM
OCCn1cc(-c2cc3cccc4c5cccc6cccc(c(c2)c34)c65)nn1 | 0.023 µM | > 50 µM | > 50 µM
O=c1[nH]c(=O)n([C@H]2C[C@H](O)[C@@H](CO)O2)cc1-n1cc(-c2cc3cccc4c5cccc6cccc(c(c2)c34)c65)nn1 | 0.06 µM | > 50 µM | > 50 µM
OCCn1cc(-c2ccc3c4cccc5cccc(c6cccc2c63)c54)nn1 | 0.1 µM | > 50 µM | > 50 µM
O=c1[nH]c(=O)n([C@@H]2O[C@H](CO)[C@@H](O)[C@H]2O)cc1-n1cc(-c2cc3cccc4c5cccc6cccc(c(c2)c34)c65)nn1 | 0.06 µM | > 50 µM | > 50 µM
O=c1[nH]c(=O)n([C@H]2C[C@H](O)[C@@H](CO)O2)cc1-n1cc(-c2ccccc2)nn1 | > 50 µM | > 50 µM | > 50 µM
